Entries after “also recorded” stand apart in the source; their conditions may differ.

Data on 26 compounds can be found in EP0598753B1, “MANGANESE COMPLEXES OF NITROGEN-CONTAINING MACROCYCLIC LIGANDS EFFECTIVE AS CATALYSTS FOR DISMUTATING SUPEROXIDE” (MONSANTO COMPANY, priority 1991, dated 1993).

Data set [1] relates to human aortic endothelial cells (HAE cells).
Excerpt: Human peripheral blood neutrophils were isolated from fresh venous blood of healthy volunteers. EDTA anticoagulated blood was separated using a single step density centrifugation (Polymorphprep; Nycomed Pharma, Oslo, Norway) followed by several washes in Hank's balanced salt solution supplemented with 0.5% BSA (Bovine Serum Albumin) (HBSSB) and the hypertonic lysis of erythrocytes. Neutrophils were counted via Coulter electronic particle counter and resuspended in HBSSB supplemented with 25% Endothelial Basal Medium (EBM), (Clonetics Corporation, San Diego, CA) at a concentration of 5 x 10^6 polymorphonuclear leukocytes (PMN)/ml.
The cytotoxic effects of stimulated neutrophils on endothelial cells were determined using a ^51Cr-release assay as previously described (Moldow, C.F., and Jacob, H.S. (1984) Methods Enzymol. 105, 378-385). Confluent monolayers of human aortic endothelial cells (HAE cells; Clonetics) grown in 96-well culture plates were prelabeled with 1 µCi/well ^51Cr (Na2 ^51Cr2O4, New England Nuclear, Boston, MA). The cells were incubated for 18 h at 37°C, then cytokine-activated with 10 Units/well human recombinant tumor necrosis factor-a (hrTNF-α; Monsanto Company, St. Louis, MO) for 4 h at 37°C. The cells were washed twice to remove unincorporated radioactivity with Hank's balanced salt solution supplemented with 0.5% BSA. To assess inhibition of PMN-mediated cytotoxicity, manganese(II) complexes at various doses (0-300 µM) were added to five replicate wells/dose of HAE cells immediately prior to the addition of PMN. Suspensions of PMN in HBSSB supplemented with 25% Endothelial Basal Medium were added to the wells at a neutrophil to endothelial cell ratio of 50:1. The PMN were allowed to adhere for 15 minutes at 37°C, primed with 125 Units/well hrTNF-α (Berkow, R.L., Wang, D., Larrick, J.W., Dodson, R.W., and Howard, T.H. (1987) J. Immunol. 139, 3783-3791; Varani, J.; Bendelow, M. J. Sealey, D. E.; Kunkel, S. L.; Gannon, D. E.; Ryan, U.S.; and Ward, P.A. (1987) Lab. Invest., 59, 292-295) for 10 minutes, and stimulated with human recombinant complement component C5a (Sigma Chemical, St. Louis, MO). […] After an additional incubation of 4 hours at 37°C, 200 µl of the 250 µl reaction volume (soluble fraction) was removed to a tube for counting. The cells were washed twice with 200 µl HBSSB (nonadherent fraction) and the washes pooled with the soluble fraction. The adherent fraction was collected by lysing the HAE cells with 200 µl 1N NaOH for 30 minutes and removing to separate tubes. Both fractions were analyzed by gamma scintillation spectrometry. The percentage cytotoxicity was calculated by the following formula: % Cytotoxicity =(cpm (soluble + nonadherent fractions))/(cpm (soluble + nonadherent + adherent fractions))x 100 [formula] Specific cytotoxicity reflects the difference between ^51Cr-release induced by stimulated PMN and unstimulated PMN. The IC50 values for the manganese(II) complexes for protection against neutrophil-mediated cytotoxicity were determined from a computer-driven logistic regression equation from a plot of % specific cytotoxicity versus the concentration of the manganese(II) complex.
The nature of data set [2]: Stopped-flow kinetic analysis of catalytic dismutation of superoxide. The conditions noted are these: for kCAT: catalytic rate constant for dismutation of superoxide, pH 8.1 and 21°C; for SOD activity (catalysis of the dismutation of superoxide), in words: stopped-flow kinetic analysis. Format: biochemical. An excerpt: Stopped-flow kinetic analysis is an accurate and direct method for quantitatively monitoring the decay rates of superoxide in water.
For the attainment of consistent and accurate measurements all reagents were biologically clean and metal-free. To achieve this, all buffers (Calbiochem) were biological grade, metal-free buffers and were handled with utensils which had been washed first with 0.1 N HCl, followed by purified water, followed by a rinse in a 10^-4 M EDTA bath at pH 8, followed by a rinse with purified water and dried at 65°C for several hours. Dry DMSO solutions of potassium superoxide (Aldrich) were prepared under a dry, inert atmosphere of argon in a Vacuum Atmospheres dry glovebox using dried glassware. The DMSO solutions were prepared immediately before every stopped-flow experiment. A mortar and pestle were used to grind the yellow solid potassium superoxide (~100 mg). The powder was then ground with a few drops of DMSO and the slurry transferred to a flask containing an additional 25 ml of DMSO. The resultant slurry was stirred for 1/2 h and then filtered. […] These solutions were transferred to a glovebag under nitrogen in sealed vials prior to loading the syringe under nitrogen. It should be noted that the DMSO/superoxide solutions are extremely sensitive to water, heat, air, and extraneous metals. A fresh, pure solution has a very slight yellowish tint.
Water for buffer solutions was delivered from an in-house deionized water system to a Barnstead Nanopure Ultrapure Series 550 water system and then double distilled, first from alkaline potassium permanganate and then from a dilute EDTA solution. For example, a solution containing 1.0 g of potassium permanganate, 2 liters of water and additional sodium hydroxide necessary to bring the pH to 9.0 were added to a […] fitted with a solvent distillation head. This distillation will oxidize any trace of organic compounds in the water. The final distillation was carried out under nitrogen in a 2.5-liter flask containing 1500 ml of water from the first still and 1.0 x 10^-6M EDTA. This step will remove remaining trace metals from the ultrapure water. To prevent EDTA mist from volatilizing over the reflux arm to the still head, the 40-cm vertical arm was packed with glass beads and wrapped with insulation. This system produces deoxygenated water that can be measured to have a conductivity of less than 2.0 nanomhos/cm^2.
The stopped-flow spectrometer system was designed and manufactured by Kinetic Instruments Inc. (Ann Arbor, MI) and was interfaced to a MAC IICX personal computer. The software for the stopped-flow analysis was provided by Kinetics Instrument Inc. and was written in QuickBasic with MacAdios drivers. Typical injector volumes (0.10 ml of buffer and 0.006 ml of DMSO) were calibrated so that a large excess of water over the DMSO solution were mixed together. […] Aqueous solutions to be mixed with the DMSO solution of superoxide were prepared using 80 mM concentrations of the Hepes buffer, pH 8.1 (free acid + Na form). One of the reservoir syringes was filled with 5 ml of the DMSO solution while the other was filled with 5 ml of the aqueous buffer solution. The entire injection block, mixer, and spectrometer cell were immersed in a thermostatted circulating water bath with a temperature of 21.0 ± 0.5°C.
Prior to initiating data collection for a superoxide decay, a baseline average was obtained by injecting several shots of the buffer and DMSO solutions into the mixing chamber. These shots were averaged and stored as the baseline.

For the compound `C[C@@H]1CNCCNCCNCCNCCN1.[Cl-].[Cl-].[Mn+2]` [Example 4, [Manganese(II)dichloro((R)-2-Methyl-1,4,7,10,13-pentaazacyclopentadecane)]], in data set [1], the “protection against human neutrophil-mediated cytotoxicity, in words” value is “protective against human neutrophil-mediated cytotoxicity”.
As to “Manganese(II)(2,12-Dimethyl-3,7,11,17-tetraazabicyclo[11.3.1]heptadeca-1(17),2,11,13,15 -pentaenel] Chloride [Example 23]”, the kCAT entry in data set [2] (given as ND) is reported as “ND (Manganese(II) complex has no detectable superoxide dismutase activity. (kcat<10^6M^-1sec^-1))”.
On to MnCl2, for which, in data set [2] (given as ND), the kCAT result is recorded as “ND (Manganese(II) complex has no detectable superoxide dismutase activity. (kcat<10^6M^-1sec^-1))”. In addition, the “SOD activity (catalysis of the dismutation of superoxide), in words” value (“SOD activity” for short) in data set [2] is given as “failed to perturb the second order spontaneous decay of superoxide; also recorded: has no SOD activity”.
For “[Manganese(II)1,4,7,10,13-Pentamethyl-1,4,7,10,13-pentaazacyclopentadecane)] Chloride [Example 19]”, in that order: “ND (Manganese(II) complex has no detectable superoxide dismutase activity. (kcat<10^6M^-1sec^-1))” and “ineffective at dismutating superoxide”.
For “[Manganese(II)1,4,8,12-tetramethyl-1,4,8,12-tetraazacyclopentadecane)] Chloride [Example 18]”, in that order: “ND (Manganese(II) complex has no detectable superoxide dismutase activity. (kcat<10^6M^-1sec^-1))” and “do not have SOD activity”.
With “[Manganese(II)1,5,9,13-Tetraazacyclohexadecane)] Chloride [Example 10]”, in data set [2] (given as ND), the kCAT entry is on record as “ND (Manganese(II) complex has no detectable superoxide dismutase activity. (kcat<10^6M^-1sec^-1))”. Also, the “SOD activity” value in data set [2] is reported as “are not catalysts for the dismutation of superoxide”.
For “[Manganese(II) (1,4,8,11-Tetraazacyclotetradecane)] Chloride [Example 20]”, in that order: “ND (Manganese(II) complex has no detectable superoxide dismutase activity. (kcat<10^6M^-1sec^-1))” and “are not catalysts for the dismutation of superoxide”.
For “[Manganese(II)(1,4,7,10,14-Pentaazacycloheptadecane)] Chloride [Example 12]”, in that order: “ND (Manganese(II) complex has no detectable superoxide dismutase activity. (kcat<10^6M^-1sec^-1))” and “ineffective at catalyzing the dismutation of superoxide”.
Regarding “[Manganese(II)(1,4,8,11-Tetramethyl-1,4,8,11-tetraazacyclotetradecane)]Chloride [Example 25]”, the kCAT entry in data set [2] (given as ND) is reported as “ND (Manganese(II) complex has no detectable superoxide dismutase activity. (kcat<10^6M^-1sec^-1))”. Also, in data set [2], the “SOD activity” value is reported as “are not catalysts for the dismutation of superoxide”.
For “[Manganese(II)(1,4,8,12-Tetraazacyclopentadecane)] Chloride [Example 21]”, in that order: “ND (Manganese(II) complex has no detectable superoxide dismutase activity. (kcat<10^6M^-1sec^-1))” and “do not have SOD activity”.
For “[Manganese(II)(1-Methyl-1,4,7,10,13-pentaazacyclopentadecane)]Chloride [Example 15]”, in that order: “ND (Manganese(II) complex has no detectable superoxide dismutase activity. (kcat<10^6M^-1sec^-1))” and “ineffective at dismutating superoxide”.
For “[Manganese(II)(1-Methyl-1,4,7,11,14-pentaazacyclohexadecane)] Chloride [Example 16]”, in that order: “ND (Manganese(II) complex has no detectable superoxide dismutase activity. (kcat<10^6M^-1sec^-1))” and “ineffective at catalyzing the dismutation of superoxide”.
Consider “[Manganese(II)(2,7,12-Trimethyl-3,7,11,17-tetraazabicyclo[11.3.1]heptadeca-1(17),2, 11,13,15-pentaene)] Chloride [Example 24]”, for which the kCAT entry in data set [2] (given as ND) is “ND (Manganese(II) complex has no detectable superoxide dismutase activity. (kcat<10^6M^-1sec^-1))”.
For “[Manganese(II)(2,13-Dimethyl-3,6,9,12,18-pentaazabicyclo[12.3.1]octadeca-1(18)2,12,14,16 -pentaene)]Chloride [Example 26]”, the kCAT result in data set [2] (given as ND) is on record as “ND (Manganese(II) complex has no detectable superoxide dismutase activity. (kcat<10^6M^-1sec^-1))”.
On the same count and under the same terms, the entry for “[Manganese(II)(5,7,7,12,14,14-Hexamethyl-1,4,8,11-tetraazacyclotetradeca-4,11-diene)] Chloride [Example 22]” is “ND (Manganese(II) complex has no detectable superoxide dismutase activity. (kcat<10^6M^-1sec^-1))”.
As to “[Manganese(II)[1,4,7,10,13,16,19-Heptaazaacycloheneicosane)]Chloride [Example 14]”, the kCAT entry in data set [2] (given as ND) was “ND (Manganese(II) complex has no detectable superoxide dismutase activity. (kcat<10^6M^-1sec^-1))”. In addition, in data set [2], the “SOD activity” value is “are not catalysts for the dismutation of superoxide”.
Regarding “[Manganese(II)[1,4,7,10,13,16-hexaazacyclooctadecane)] Chloride [Example 13]”, the kCAT entry in data set [2] (given as ND) is given as “ND (Manganese(II) complex has no detectable superoxide dismutase activity. (kcat<10^6M^-1sec^-1))”. In addition, the “SOD activity” value in data set [2] was “are not catalysts for the dismutation of superoxide”.
For “[Manganese(II)[1-oxa-4,7,10,13-Tetrazacyclopentadecane)] Chloride [Example 17]”, in that order: “ND (Manganese(II) complex has no detectable superoxide dismutase activity. (kcat<10^6M^-1sec^-1))” and “do not have SOD activity”.
On to “[Manganese(II)dichloro(2,3-Benzo-1,4,7,10,13-pentaazacyclopentadecane)] [Example 37]”, for which, in data set [2], the kCAT is 4.6e+06 M⁻¹ s⁻¹.
Same read-out and setting: under “[Manganese(II)dichloro(3,6,9,12,18-Pentaazabicyclo(12.3.1)octadecane)] [Example 38]” stands 5.28e+06 M⁻¹ s⁻¹.
Same read-out and setting: under “[Manganese(II)dichloro(trans-2,3-Cyclohexano-1,4,7,10,13-pentaazacyclopentadecane)] [Example 35]” stands 3.44e+07 M⁻¹ s⁻¹.
Still for that read-out and setting: the figure for “[Manganese(II)nitrate(1,4,7,10,13-pentaazacyclopentadecane)] Nitrate [Example 9]” is 2.3e+07 M⁻¹ s⁻¹.
On to “[Manganese(III)(1,4,7,11,14-Pentaazacycloheptadecane)] Chloride [Example 11]”, for which the kCAT result in data set [2] (given as ND) is given as “ND (Manganese(II) complex has no detectable superoxide dismutase activity. (kcat<10^6M^-1sec^-1))”. For the same compound, the “SOD activity” value in data set [2] is “ineffective at catalyzing the dismutation of superoxide”.
As for “{Manganese(II)dichloro[2-(1-Naphthyl)-1,4,7,10,13-pentaazacyclopentadecane]} [Example 32]”, the kCAT in data set [2] was determined as 6.98e+06 M⁻¹ s⁻¹.
Take “{Manganese(II)dichloro[(2S,8R)-Dimethyl-1,4,7,10,13-penta-azacyclopentadecane]} [Example 34]”: in data set [2], the kCAT is 7.08e+06 M⁻¹ s⁻¹.
The same measure, in the same setting: the figure for “{Manganese(II)dichloro[(2S, 5R)-Dimethyl-1,4,7,10,13-pentaazacyclopentadecane]} [Example 33]” is 2.9e+07 M⁻¹ s⁻¹.
